IC50 data for 22 compounds are collected here from US20220380371A1, “MLL1 INHIBITORS AND ANTI-CANCER AGENTS” (NOVARTIS AG, priority 2019, published 2022).

Each structure is given as a SMILES string. pIC50: −log10 of the molar value.

The test system of experiment [1] is MV4-11 cells. Briefly: MV4-11 6-Day Cell Growth CTG (CellTiter-Glo) Assay. Format: cell-based. The settings on record: Homo sapiens, MV4-11, 144 h, MV4-11 cell growth CellTiter-Glo, 6 days. The procedure:
MV4-11 6-Day Cell Growth CTG (CellTiter-Glo) Assay
Acute myeloid leukemia cell MV4-11 (ATCC® CRL-9591™) was cultured with RPMI 1640 medium (Thermo Fisher Scientific, cat #11875) supplemented with 10% FBS (Thermo Fisher Scientific, cat #10099141) in humidified incubator at 37° C., 5% CO2. To assess the effect of MLL1 inhibition on cell growth, the compound of the present invention was dissolved in DMSO and serially diluted at 1:3 for 12 points starting from 10 mM then 200 nL for the replicate of each dose per well was dispensed to Viewplate-384 Black (Perkin Elmer). Exponentially growing MV4-11 cells were seeded at the density of 300 cells per well in 40 μL to the plate, so the final compound working concentration starts from 50 μM. After 6 days, 40 μL CellTiter-Glo (Promega, cat #G7573) was added into the cell culture well and luminescence was read with Envision (Perkin Elmer) to determine the viable cells. The percentage inhibition was calculated against the samples treated with DMSO only and the data were used for dose response curve fitting in GraphPad Prism to get the IC50 of representative compound of present invention, which reflects the inhibition of MLL1 activity.
In general terms: In ATP-based viability assays light output follows the ATP content of the culture.

Experiment [2] has as its target wild type MLL1 four-member complex (MLL1-4C) (Homo sapiens, UniProt Q03164). Briefly: MLL1 LC-MS Assay. The class given is biochemical. The following applies: read-out: LCMS. The procedure: The compounds of the present disclosure were serially and separately diluted 3-fold in DMSO to obtain a total of eight or twelve concentrations. Then the test compounds at each concentration (120 nL of each) were transferred by Mosquito into white Proxiplate plus 384-well microplate (PerkinElmer). Solutions (6 μL) of 60 nM wild type MLL1 four-member complex (MLL1-4C) and 5 μM SAM in the reaction buffer (20 mM Tris-HCl, pH 8.0, 0.01% Tween 20, 1 mM DTT, 10 mM MgCl2, 0.01% BSA) were added to the wells that were then incubated with the test compound for 20 min. A 6 μL solution of 20 μM of the peptide substrate H3K4me0 (histone H3[1-21]-Biotin) in the reaction buffer was added to initiate each reaction. The final components in the reaction solution include 30 nM MLL1-4C, 2.5 μM SAM, and 10 μM H3K4me0 with varying concentration of the compounds. A positive control consisted of 30 nM MLL1-4C, 2.5 μM SAM, and 10 μM substrate in the absence of the test compound, and a negative control consisted of 2.5 μM SAM, and 10 μM substrate only. Each reaction was incubated at rt for 120 min, then stopped by addition of 3 μL per of quench solution (2.5% TFA with 320 nM d4-SAH). The reaction mixture was centrifuged (Eppendorf centrifuge 5810, Rotor A-4-62) for 2 min at 2000 rpm. The SAH production from the enzymatic assays were monitored by LC-MS/MS on an API 4000 triple quadrupole mass spec with Turbolon Spray (Applied Biosystem) coupled with Prominenece UFLC (Shimazu). The level of SAH production were then normalized based on the values coming from the positive and negative controls to give percent enzyme activities. The data were then fit to a dose response equation using the program Helios (Novartis) to get the IC50 values of the test compounds.

Experiment [3] deals with H3K4me3 in MV4-11 cells. In words: MV4-11 H3K4me3 Cellular ELISA Assay. The class given is cell-based. The settings on record: Homo sapiens, MV4-11, 48 h. As to the method: MV4-11 H3K4me3 Cellular ELISA Assay
MV4-11 (ATCC® CRL-9591™) was cultured with RPMI1640 medium (Thermo Fisher Scientific, cat #11875) supplemented with 10% FBS (Thermo Fisher Scientific, cat #10099141) and 50 U/ml Penicillin-Streptomycin (Thermo Fisher Scientific, cat #10378016) in humidified incubator at 37° C., 5% CO2.
200 nL compounds dissolved in DMSO were serially diluted at 1:3 ratio for 12 points starting from 10 mM and dispensed into each wells of cell culture plates (PDL-coated ViewPlate-384 Black, FTC, PerkinElmer, #6007710). 3,750 MV4-11 cells in 40 μL culture medium were seeded into each well and treated with desired concentration for 48 hours. After treatment, wash cells with cold phosphate based buffer (PBS, pH 7.4) and aspirate the remaining PBS buffer. Crude histone lysate was extracted by 40 μL 0.5M HCl for 1 hour in 4° C. following neutralization by adding 32 μL neutralization buffer (0.5M Sodium phosphate dibasic, pH ˜12.5, 1.25 mM Dithiothreitol, Promega #V3151, Protease Inhibitor Cocktail, Sigma #8340) for each well. 5 μL and 20 μL of histone lysate was loaded to ELISA plate (384 Well Plates, PE HB, White, 6005620) for detection of total H3 and H3K4me3, respectively. Shake the plates gently in 4° C. for overnight. After histone binding, plates were washed with 80 μL PBS/T (PBS with 0.05% Tween-20) and blocked with 50 μL 3% BSA diluted in PBS/T per well for 1 hour. Incubate wells with primary antibody for 1 hour at room temperature using anti-H3K4me3 (CST #9727) and anti-total H3 (CST #9715) diluted 1:2000 in 3% BSA. Plates were then washed with PBS/T for 3 times and incubated with horseradish peroxidase (HRP) conjugated secondary antibody (CST #7074, 1:5000) for 1 hour at room temperature. The abundance of H3K4me3 and total H3 were measured by ECL substrates chemiluminescence (Pierce, #34080) on a plate reader (PerkinElmer EnVison 2104 Mutilable Reader). Percentage inhibition was calculated against DMSO control after normalization of H3K4me3 signal to H3 signal for individual samples. The data were then fit to a dose response curve using GraphPad Prism for IC50 calculation.
In general terms: In an ELISA, binding on a coated surface is turned into a signal by an enzyme label.

Regarding `Nc1ncnc2c1ncn2Cc1c(N2CC[C@](N)(C(=O)NC3CC3)C2)ccc(F)c1CN1CCCC(F)(F)C1` [Example 69], the pIC50 was greater than 5.70 in experiment [1], 7.00 to 7.30 in experiment [2] and greater than 5.72 in experiment [3].
Consider `CCc1c(Cl)cc(Cl)c(N2CC[C@](N)(C(=O)N3CCS(=O)(=O)CC3)C2)c1Cn1cnc2c(N)ncnc21` [Example 73], for which the pIC50 is greater than 5.70 in experiment [1], less than 7.00 in experiment [2] and greater than 5.72 in experiment [3].
Consider `Nc1ncnc2c1ncn2Cc1c(N2CC[C@](N)(C(=O)NC3CC3)C2)ccc(F)c1CO` [Example 76, (R)-3-amino-1-(2-((6-amino-9H-purin-9-yl)methyl)-4-fluoro-3-(hydroxymethyl)phenyl)-N-cyclopropylpyrrolidine-3-carboxamide], for which the pIC50 in experiment [1] is 5.52 to 5.70; in experiment [2], 7.00 to 7.30; in experiment [3], greater than 5.72.
The like results for `COCc1c(F)ccc(N2CC[C@](N)(C(=O)NC3CC3)C2)c1Cn1cnc2c(N)ncnc21` [Example 77, (R)-3-amino-1-(2-((6-amino-9H-purin-9-yl)methyl)-4-fluoro-3-(methoxymethyl)phenyl)-N-cyclopropylpyrrolidine-3-carboxamide] were, in that order, greater than 5.70, 7.00 to 7.30 and greater than 5.72.
The matching figures for `COCc1c(Cl)ccc(N2CC[C@](N)(C(=O)NC3CC3)C2)c1Cn1cnc2c(N)ncnc21` [Example 78]: greater than 5.70, greater than 7.30 and greater than 5.72.
Take `Nc1ncnc2c1ncn2Cc1c(N2CC[C@](N)(C(=O)NC3CC3)C2)ccc(Cl)c1COC1CCOC1` (stereo partly drawn) [Example 79]: the pIC50 in experiment [1] is greater than 5.70; in experiment [2], 7.00 to 7.30; in experiment [3], greater than 5.72.
For `[2H]C([2H])([2H])OCc1c(F)ccc(N2CC[C@](N)(C(=O)NC3CC3)C2)c1Cn1cnc2c(N)ncnc21` [Example 80], the values for the pIC50 in experiment [1], in experiment [2] and in experiment [3] were greater than 5.70, 7.00 to 7.30 and greater than 5.72, respectively.
With `[2H]C([2H])([2H])OCc1c(Cl)ccc(N2CC[C@](N)(C(=O)NC3CC3)C2)c1Cn1cnc2c(N)ncnc21` [Example 81], the pIC50 in experiment [1] was greater than 5.70; in experiment [2] it was greater than 7.30; in experiment [3] it was greater than 5.72.
As to `Nc1ncnc2c1ncn2Cc1c(Br)cc(Cl)cc1N1CC[C@](N)(c2nnn[nH]2)C1` [Example 83, (R)-9-(2-(3-amino-3-(1H-tetrazol-5-yl)pyrrolidin-1-yl)-6-bromo-4-chlorobenzyl)-9H-purin-6-amine], the results for the pIC50 in experiment [1], in experiment [2] and in experiment [3] were greater than 5.70, greater than 7.30 and greater than 5.72, respectively.
The like results for `CCc1cc(-c2ccccc2F)cc(N2CC[C@](N)(C(=O)NC3CC3)C2)c1Cn1cnc2c(N)ncnc21` [Example 92, (R)-3-amino-1-(4-((6-amino-9H-purin-9-yl)methyl)-5-ethyl-2′-fluoro-[1,1′-biphenyl]-3-yl)-N-cyclopropylpyrrolidine-3-carboxamide] were, in that order, greater than 5.70, greater than 7.30 and greater than 5.72.
The like results for `Nc1ncnc2c1ncn2Cc1c(N2CC[C@](N)(C(=O)NC3CC3)C2)cc(-c2cccs2)cc1C(F)(F)F` [Example 94] were, in that order, greater than 5.70, greater than 7.30 and greater than 5.72.
The like results for `CCc1cc(-c2cccnc2)cc(N2CC[C@](N)(C(=O)NC3CC3)C2)c1Cn1cnc2c(N)ncnc21` [Example 95] were, in that order, greater than 5.70, greater than 7.30 and greater than 5.72.
In the case of `CCc1cc(-c2cscn2)cc(N2CC[C@](N)(C(=O)NC3CC3)C2)c1Cn1cnc2c(N)ncnc21` [Example 98, (R)-3-amino-1-(2-((6-amino-9H-purin-9-yl)methyl)-3-ethyl-5-(thiazol-4-yl)phenyl)-N-cyclopropylpyrrolidine-3-carboxamide], the pIC50 in experiment [1] was greater than 5.70; in experiment [2], 7.00 to 7.30; in experiment [3], greater than 5.72.
The matching figures for `CCc1cc(-c2cnccn2)cc(N2CC[C@](N)(C(=O)NC3CC3)C2)c1Cn1cnc2c(N)ncnc21` [Example 100, (R)-3-amino-1-(2-((6-amino-9H-purin-9-yl)methyl)-3-ethyl-5-(pyrazin-2-yl)phenyl)-N-cyclopropylpyrrolidine-3-carboxamide]: greater than 5.70, greater than 7.30 and greater than 5.72.
As to `Nc1ncnc2c1ncn2Cc1c(N2CC[C@](N)(C(=O)NC3CC3)C2)cc(CN2CCOCC2)c(F)c1Cl` [Example 103, (R)-3-amino-1-(2-((6-amino-9H-purin-9-yl)methyl)-3-chloro-4-fluoro-5-(morpholinomethyl)phenyl)-N-cyclopropylpyrrolidine-3-carboxamide], the values for the pIC50 in experiment [1], in experiment [2] and in experiment [3] were greater than 5.70, greater than 7.30 and greater than 5.72, respectively.
The matching figures for `N#Cc1c(Cl)ccc(N2CC[C@](N)(C(=O)NC3CC3)C2)c1Cn1cnc2c(N)ncnc21` [Example 104]: greater than 5.70, greater than 7.30 and greater than 5.72.
On to `Nc1ncnc2c1ncn2Cc1c(N2CC[C@](N)(C(=O)NC3CC3)C2)cc(Cl)c(Cl)c1CN1CCOCC1` [Example 105], for which the pIC50 in experiment [1] was greater than 5.70; in experiment [2] it was greater than 7.30; in experiment [3], greater than 5.72.
As for `CCc1cc(Cl)cc(N2CC[C@](N)(CO)C2)c1Cn1cnc2c(N)ncnc21` [Example 108], the results for the pIC50 in experiment [1], in experiment [2] and in experiment [3] were greater than 5.70, greater than 7.30 and greater than 5.72, respectively.
As for `COC[C@@]1(N)CCN(c2ccc3ccccc3c2Cn2cnc3c(N)ncnc32)C1` [Example 109], the pIC50 was greater than 5.70 in experiment [1], 7.00 to 7.30 in experiment [2] and greater than 5.72 in experiment [3].
Consider `Nc1ncnc2c1ncn2Cc1c(I)c(F)c2c(c1N1CC[C@](N)(C(=O)NC3CC3)C1)OCC2` [Example 111], for which the results for the pIC50 in experiment [1], in experiment [2] and in experiment [3] were 5.52 to 5.70, greater than 7.30 and 5.52 to 5.72, respectively.
Turning to `CCSc1c(Cl)ccc(N2CC[C@](N)(C(=O)NC3CC3)C2)c1Cn1cnc2c(N)ncnc21` [Example 113], the figures for the pIC50 in experiment [1], in experiment [2] and in experiment [3] were greater than 5.70, greater than 7.30 and greater than 5.72, respectively.
The like results for `Nc1ncnc2c1ncn2Cc1c(N2CC[C@](N)(C(=O)NCc3cccnc3O)C2)ccc(F)c1C(F)(F)F` [Example 120] were, in that order, greater than 5.70, 7.00 to 7.30 and greater than 5.72.
